Data on five compounds can be found in publication PMC9852552, “Emission of floral volatiles is facilitated by cell-wall non-specific lipid transfer proteins” (Nature Communications, 2023).

Common to all, as to assay type: binding, Petunia hybrida
One assay deals with PhnsLTP3. As to the kind of experiment: Activity of PhnsLTP3 with TNS (TNS fluorescence). The note with it: for TNS fluorescence with boiled PhnsLTP3: three biological replicates. As for the experimental part:
(§1) To directly test whether PhnsLTP3 can bind petunia VOCs, in vitro displacement assays were performed using the recombinant PhnsLTP3 protein and fluorescent 6-(p-toluidino)−2-naphthalenesulfonate (TNS) in the presence of petunia volatiles. […] TNS fluoresces strongly when bound to the hydrophobic regions of the protein, while it has weak fluorescence in an aqueous solution. […] Potential ligands of the protein will displace the bound TNS from the hydrophobic protein pocket into the aqueous environment leading to a decrease in the fluorescent signal, which was used to calculate the dissociation constant of the protein with ligand. […] To test whether PhnsLTP2 and PhnsLTP3 can bind other VOCs, we assayed the terpenoids: limonene, linalool, and nerolidol, as well as methyl jasmonate in TNS displacement assays. Both PhnsLTP2 and PhnsLTP3 were able to bind tested volatile compounds with Kds in the micromolar range (Supplementary Figs. 16 and 17).
(§2) The fluorescence-based-binding assays were performed largely according to previous publications[12],[52] with slight modifications. […] All mixtures were excited at 320 nm, and the fluorescence emission at 437 nm was recorded using a plate reader (SpectraMax iD3, Molecular Devices) at equilibrium after 5 min of incubation at 25 °C giving the background fluorescence Fmix0 and FTNS0 . The tested ligands dissolved in 2 µL DMSO were then added to the mixtures and TNS only to different final concentrations, and the fluorescence emissions were recorded at equilibrium after 5 min of incubation ( Fmixligand and FTNSligand ). To account for the change in the TNS fluorescence intensity upon adding the solvent DMSO, the background fluorescence of TNS ( FTNSsol ) as well as each PhnsLTP with TNS ( Fmixsol ) were measured. The ratios RTNS=FTNSsol/FTNS0 and Rmix=Fmixsol/Fmix0 were calculated to calibrate the fluorescence. Three measurements were taken for each concentration. The results were expressed as a percentage of fluorescence quenched Fmixligand/Rmix−FTNSligand/RTNS/Fmix0−FTNS0×100% . The corresponding dissociation constants kd were obtained by non-linear regression fitting of the binding kinetics to the Michaelis-Menten equation.
Supplementary Figure 15 | Protein purification and characterization of PhnsLTP1, PhnsLTP2, and PhnsLTP3 activity with TNS. a, SDS-PAGE analysis of PhnsLTP1 after affinity chromatography on Ni-NTA agarose (lane A) and subsequent cation exchange chromatography on HiTrapTM SP HP-Cytiva (lane B). 5.3 µg protein were loaded per each lane .b, SDS-PAGE analysis of 8.75 µg of purified PhnsLTP 1, PhnsLTP 2 , and PhnsLTP 3. […] P values were determined by one-way ANOVA with the Tukey’s multiple comparisons test relative to TNS background (black) and boiled PhnsLTP3 in the presence of 200 mM DTT (blue). […]

The subject of a further assay is PhnsLTP1. As to the kind of experiment: Activity of PhnsLTP1 with TNS (TNS fluorescence). The protocol: (§3) To directly test whether PhnsLTP3 can bind petunia VOCs, in vitro displacement assays were performed using the recombinant PhnsLTP3 protein and fluorescent 6-(p-toluidino)−2-naphthalenesulfonate (TNS) in the presence of petunia volatiles. […] TNS fluoresces strongly when bound to the hydrophobic regions of the protein, while it has weak fluorescence in an aqueous solution. […] Potential ligands of the protein will displace the bound TNS from the hydrophobic protein pocket into the aqueous environment leading to a decrease in the fluorescent signal, which was used to calculate the dissociation constant of the protein with ligand. […]
(§4) The fluorescence-based-binding assays were performed largely according to previous publications[12],[52] with slight modifications. […] All mixtures were excited at 320 nm, and the fluorescence emission at 437 nm was recorded using a plate reader (SpectraMax iD3, Molecular Devices) at equilibrium after 5 min of incubation at 25 °C giving the background fluorescence Fmix0 and FTNS0 . The tested ligands dissolved in 2 µL DMSO were then added to the mixtures and TNS only to different final concentrations, and the fluorescence emissions were recorded at equilibrium after 5 min of incubation ( Fmixligand and FTNSligand ). […] The ratios RTNS=FTNSsol/FTNS0 and Rmix=Fmixsol/Fmix0 were calculated to calibrate the fluorescence. […]

The next assay concerns PhnsLTP2. As to the kind of experiment: Activity of PhnsLTP2 with TNS (TNS fluorescence). The note with it: three biological replicates (c2-c4); listed as PhnsLTP2+TNS. The protocol: as §3, §4
The target of another assay is recombinant PhnsLTP2. In words: TNS displacement assay with recombinant PhnsLTP2. The note with it: for Kd: PhnsLTP2 1 µM, TNS 3 µM, non-linear fitting to Michaelis-Menten equation, means ± S.E., n = 3, read-out: dissociation constant Kd (PhnsLTP2); for Percentage fluorescence quenched (%): biological replicates 1-3, Supplementary Figure 17. As for the experimental part: as §1, §2
Supplementary Figure 16 | Binding kinetics of recombinant PhnsLTP2 with phenylpropanoids/benzenoids by petunia flowers, terpenoids and methyl jasmonate.
TNS displacement assays were performed at fixed concentrations of PhnsLTP2 (1 µM) and TNS (3 µM) and the fluorescence was measured before and after the tested compounds were added at various concentrations. The results are expressed as percentage of fluorescence quenched with respect to the concentration of added compound. The binding curves were obtained by non-linear fitting to the Michaelis-Menten equation (solid line in the graph) and the dissociation constants Kd [µM] were obtained. Phenylacetaldehyde, eugenol, and […]
corresponding binding curves. All data are means ±S.E. (n = 3 biological replicates).

Another assay concerns the target recombinant PhnsLTP3. In words: TNS displacement assay with recombinant PhnsLTP3. The following applies: for Kd / Percentage fluorescence quenched: PhnsLTP3 1 µM, TNS 3 µM; for Kd: means ± S.E., n = 3; for Percentage fluorescence quenched: three biological replicates (c2-c4); for Percentage fluorescence quenched (%): biological replicates 1-3, Supplementary Figure 16. The protocol: as §1
Fig. 5 Binding kinetics of recombinant PhnsLTP3 with VOCs emitted by petunia flowers. TNS displacement assays were performed at fixed concentrations of PhnsLTP3 (1 µM) and TNS (3 µM) and the fluorescence was measured before and after the tested compounds were added at various concentrations. The results are expressed as percentage of fluorescence quenched with respect to the concentration of added compound. The binding curves were obtained by non-linear fitting to the Michaelis-Menten equation (solid line in the graph) and the dissociation constants Kd [µM] were obtained. […] All data are means ± S.E. (n = 3 biological replicates).
as §2
The binding curves of PhnsLTP3 with various VOC compounds were obtained by non-linear fitting to the one-binding-site (Eq. (1)) and two-binding-site (Eq. (2)) models. The equations assume that the ligand binds to multiple independent binding sites and that the binding to each site follows the law of mass action:1 %offluorescencequenched=Bmax×[TNS]/kd+[TNS] 2 %offluorescencequenched=Bmax1×[TNS]/kd1+[TNS]+Bmax2×[TNS]/kd2+[TNS] […]
PhnsL TP3 (1 µ M)and TNS (3 µ M)and the fluorescence was measured before and after the tested compounds were added at various concentrations. The results are expressed as percentage of fluorescence quenched with respect to the concentration of added compound.
The binding curves were obtained by non-linear fitting to the Michaelis-Menten equation (solid line in the graph) and the dissociation constants Kd [µ M]were obtained. All data are means ±S.E. (n = 3 biological replicates).
Supplementary Figure 25 | Analysis of number of binding sites of PhnsLTP3.
TNS displacement assay was performed at fixed concentrations of PhnsLTP3 (1 µM) and TNS (3 µM) and the fluorescence was measured before and after methyl […]

[1] abbreviates: non-linear fitting to Michaelis-Menten equation (one binding site), read-out: dissociation constant Kd (PhnsLTP3).

Where “and” joins values, the source holds several entries; their conditions need not be identical. Equal entries are not always repeated. Where two headings read alike, the source gives them in different places.

As for `Cc1ccc(Nc2ccc3cc(S(=O)(=O)O)ccc3c2)cc1` [TNS, 6-(p-toluidino)−2-naphthalenesulfonate], the “TNS fluorescence with boiled PhnsLTP3” value with PhnsLTP3 (boiled PhnsLTP3 in the presence of 200 mM DTT (negative control), listed as Boiled PhnsLTP3+TNS (200 mM DTT)) was 508777 A.U. and 481415 A.U. and 534530 A.U; with PhnsLTP3 (boiled PhnsLTP3 in the presence of 400 mM DTT (negative control), listed as Boiled PhnsLTP3+TNS (400 mM DTT)) it was 531842 A.U. and 534148 A.U. and 522476 A.U. For the same compound, the “TNS fluorescence in the presence of PhnsLTP3 (in words)” value with PhnsLTP3 (relative to buffer and denatured, dithiothreitol-reduced PhnsLTP3 controls) was “intense TNS fluorescence”. Besides, the “TNS fluorescence with PhnsLTP3” value with PhnsLTP3 (three biological replicates (c2-c4), listed as PhnsLTP3+TNS) is 1399068 A.U. and 1386931 A.U. and 1338392 A.U. Moreover, the “TNS-binding activity of PhnsLTP1 (in words)” value in the assay on PhnsLTP1 was “did not display TNS-binding activity”. In addition, in the assay on PhnsLTP1 (three biological replicates (c2-c4), listed as PhnsLTP1+TNS), the “TNS fluorescence with PhnsLTP1” value is 198735 A.U. and 195455 A.U. and 188087 A.U. Besides, in the assay with PhnsLTP2, the “TNS fluorescence with PhnsLTP2” value is 1288048 A.U. and 1292857 A.U. and 1304928 A.U.

Consider `COC(=O)c1ccccc1` [Methylbenzoate], for which the Kd is 534 ± 302 µM at recombinant PhnsLTP2; 271 ± 91.1 µM at recombinant PhnsLTP3 (setting [1]); 521 ± 89.5 µM on recombinant PhnsLTP3 (two-binding-site fit, read-out: dissociation constant Kd1 (PhnsLTP3, two-binding-site model)); 2 ± 1.9 µM at recombinant PhnsLTP3 (two-binding-site fit, read-out: dissociation constant Kd2 (PhnsLTP3, two-binding-site model)). Besides, the Percentage fluorescence quenched was 6.48% and 6.57% (2×) with recombinant PhnsLTP3 (VOC concentration 3 µM); 10.07% and 16.15% and 14.94% in the assay with recombinant PhnsLTP3 (VOC concentration 30 µM); 37.30% and 35.09% and 38.77% in the assay on recombinant PhnsLTP3 (VOC concentration 300 µM); 74.64% and 66.75% and 71.33% with recombinant PhnsLTP3 (VOC concentration 1500 µM); 78.82% and 71.40% and 74.18% in the assay on recombinant PhnsLTP3 (VOC concentration 3000 µM). Moreover, the “Percentage fluorescence quenched (%)” value in the assay with recombinant PhnsLTP3 (VOC concentration 3 µM) is 8.70% and 11.37% and 17.83%; in the assay with recombinant PhnsLTP3 (VOC concentration 30 µM), 3.75% and 8.76% and 8.44%; with recombinant PhnsLTP3 (VOC concentration 300 µM), 16.10% and 21.79% and 13.64%; in the assay with recombinant PhnsLTP3 (VOC concentration 1500 µM) it was 40.72% and 46.43% and 46.19%; in the assay with recombinant PhnsLTP3 (VOC concentration 3000 µM), 46.60% and 49.81% and 49.98%.

As to `O=C(OCc1ccccc1)c1ccccc1` [Benzylbenzoate], the Kd was 21.8 ± 8.8 µM on recombinant PhnsLTP2 and 6.5 ± 2.7 µM on recombinant PhnsLTP3 (setting [1]). Besides, the Percentage fluorescence quenched in the assay on recombinant PhnsLTP3 (VOC concentration 1 µM) is 31.47% and 9.59% and 36.79%; with recombinant PhnsLTP3 (VOC concentration 3 µM) it was 33.25% and 16.42% and 33.70%; in the assay with recombinant PhnsLTP3 (VOC concentration 5 µM) it was 25.37% and 28.56% and 39.27%; in the assay with recombinant PhnsLTP3 (VOC concentration 12 µM), 59.42% and 53.23% and 61.87%; in the assay with recombinant PhnsLTP3 (VOC concentration 30 µM), 72.95% and 50.76% and 70.40%.

On to `C=CC(C)(O)CCC=C(C)CCC=C(C)C` (mixture of isomers) [Nerolidol], for which the values for the Kd at recombinant PhnsLTP2 and on recombinant PhnsLTP3 (setting [1]) were 21.4 ± 4.5 µM and 2.4 ± 0.4 µM, respectively. Further, the “Percentage fluorescence quenched (%)” value with recombinant PhnsLTP2 (VOC concentration 30 µM) is 79.85% and 81.10% and 78.83%.

On to `CC/C=C\CC1C(=O)CCC1CC(=O)OC` (stereo not shown) [Methyl jasmonate], for which the Kd stood at 184 ± 96.5 µM on recombinant PhnsLTP2 and 253 ± 112 µM at recombinant PhnsLTP3 (setting [1]). The “Percentage fluorescence quenched (%)” value in the assay with recombinant PhnsLTP2 (VOC concentration 1500 µM) was 75.75% and 76.43% and 72.92%.
